Experimental data taken from ChEMBL document CHEMBL1201862, “PubChem BioAssay data set” (2004).
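Grown in 96-well plates, cells were treated for 48 hours with each compound at five concentrations. Insufficient inhibition: endpoint recorded as highest concentration tested. GI50 = concentration required for 50% inhibition of growth.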 Calls of active or inactive are those of the source. No stated cut-off is given here; in the data, active = GI50 up to about 1.1 µM and inactive = higher.

Tests used:
Experiment in all cases: DTP human tumour cell line panel, 48 h
[1] = test system: SF-539
[2] = test system: NCI-H23
[3] = test system: LOX IMVI
[4] = test system: HCC 2998
[5] = test system: UO-31
[6] = test system: NCI-H226
[7] = test system: EKVX
[8] = test system: HOP-92
[9] = test system: NCI-H460
[10] = test system: CAKI-1
[11] = test system: HCT-116
[12] = test system: COLO 205
[13] = test system: ACHN
[14] = test system: OVCAR-8
[15] = test system: SNB-75
[16] = test system: NCI-H522

Measured: GI50

O=C1/C(=C/c2ccccc2)CCCC/C1=C\c1ccccc1
inactive: [1] > 100 µM | [2] 45.1 µM | [3] 53.7 µM | [4] 48.5 µM | [5] 55 µM | [6] 39.4 µM | [7] > 100 µM | [8] 40.1 µM | [9] 51.3 µM | [10] > 100 µM | [11] 40.6 µM | [12] 39.2 µM | [13] 78.7 µM | [14] 75.3 µM | [15] 66.7 µM

COC(=O)CC1NC(=O)[C@@H]1C(C)O (some centres not stated)
inactive: [1] > 100 µM | [3] > 100 µM | [4] > 100 µM | [5] > 100 µM | [6] > 100 µM | [7] > 100 µM | [9] > 100 µM | [11] > 100 µM | [12] > 100 µM | [13] > 100 µM | [14] > 100 µM | [15] > 100 µM

Brc1c2nc3ccccc3nc2n2ccc3ccccc3c12
inactive: [1] > 100 µM | [2] > 100 µM | [3] > 100 µM | [4] > 100 µM | [5] > 100 µM | [7] > 100 µM | [8] > 100 µM | [9] > 100 µM | [10] > 100 µM | [11] > 100 µM | [12] > 100 µM | [13] > 100 µM | [14] > 100 µM | [15] > 100 µM | [16] 69.5 µM

COC(=O)c1nn(C(=N)c2ccc(Cl)cc2)c2c1CCC2
inactive: [1] > 100 µM | [2] > 100 µM | [3] > 100 µM | [4] > 100 µM | [5] > 100 µM | [6] > 100 µM | [8] > 100 µM | [9] > 100 µM | [10] > 100 µM | [11] > 100 µM | [12] > 100 µM | [13] > 100 µM | [14] > 100 µM | [15] > 100 µM | [16] > 100 µM

CCCCN(CCCC)C(=O)/C(CC(=O)c1cccc2ccccc12)=N\NC(=O)c1cc2ccccc2cc1O
inactive: [2] 19.9 µM | [3] 13 µM | [4] 16.3 µM | [5] 10.1 µM | [6] 19.9 µM | [7] 21.6 µM | [8] 19.2 µM | [9] 18.4 µM | [11] 13.1 µM | [12] 23 µM | [13] 16.9 µM | [14] 16.4 µM | [15] 13.4 µM

O=C1CCCCCCCCCCC(=O)C2CCOCCOCCOCCC1Cc1cccc(n1)C2
inactive: [1] > 100 µM | [2] > 100 µM | [3] > 100 µM | [4] 46.1 µM | [5] 42.1 µM | [6] 60 µM | [7] > 100 µM | [9] 99.1 µM | [10] 41.2 µM | [11] 88.7 µM | [12] 93.3 µM | [13] 69.8 µM | [14] 59.3 µM | [15] 49.3 µM | [16] 43.9 µM

CCCOc1nc(N)c2cnn(C3CCCCO3)c2n1 (configuration not stated)
inactive: [1] > 100 µM | [2] > 100 µM | [4] > 100 µM | [5] > 100 µM | [6] > 100 µM | [7] > 100 µM | [8] > 100 µM | [9] > 100 µM | [10] > 100 µM | [11] > 100 µM | [12] > 100 µM | [13] > 100 µM | [14] > 100 µM | [15] 56.8 µM | [16] > 100 µM

O=C1C(=O)N(c2cc(Cl)ccc2Cl)C(=O)C(=O)C1c1nc2ccccc2s1
inactive: [1] > 100 µM | [2] > 100 µM | [3] > 100 µM | [5] 16.2 µM | [6] 34.4 µM | [7] > 100 µM | [8] 24.4 µM | [9] > 100 µM | [10] > 100 µM | [11] 66.5 µM | [12] > 100 µM | [13] > 100 µM | [14] > 100 µM | [15] 49.4 µM | [16] > 100 µM

CC(C)(C)[Si](C)(C)O/N=C\c1cccc(O[Si](C)(C)C(C)(C)C)c1
inactive: [1] 21.9 µM | [3] 19.2 µM | [4] 18.3 µM | [5] 15.6 µM | [7] 18.5 µM | [8] 15.5 µM | [9] 17.7 µM | [10] 24.8 µM | [11] 18.6 µM | [12] 17.8 µM | [13] 17.9 µM | [14] 20 µM | [15] 16.7 µM

CN(C)C(=S)/N=c1\ss/c(=N\C(=S)N(C)C)n1-c1ccc2c(c1)OCO2
inactive: [1] > 100 µM | [2] > 100 µM | [3] > 100 µM | [4] > 100 µM | [5] > 100 µM | [6] > 100 µM | [7] > 100 µM | [10] > 100 µM | [11] > 100 µM | [13] > 100 µM | [14] > 100 µM | [15] > 100 µM | [16] 15.6 µM

COC(=O)C(CC(=O)c1c[nH]c2ccccc12)c1c[nH]c2ccccc12 (configuration not stated)
inactive: [1] 19.3 µM | [2] 16.7 µM | [4] 23 µM | [5] 18.2 µM | [6] 22 µM | [7] 23.4 µM | [9] 18.8 µM | [10] 20 µM | [11] 15.8 µM | [13] 16.3 µM | [14] 22.6 µM | [15] 21.2 µM

CC(C)(C)C(=O)/C=C/c1cccc(Oc2ccccc2)c1
inactive: [1] 20.1 µM | [2] > 10 µM | [4] 19 µM | [5] 14.4 µM | [6] 18.2 µM | [7] 18.7 µM | [9] 16 µM | [11] 10.5 µM | [13] 15.2 µM | [14] 13.6 µM | [15] 12.4 µM | [16] 15.3 µM

CN(C)CCCOc1ccc(/C=C2/CCC/C(=C/c3ccc(OCCCN(C)C)cc3)C2=O)cc1
inactive: [1] 1.6 µM | [2] 1.74 µM | [3] 1.51 µM | [4] 1.7 µM | [5] 1.79 µM | [7] 3.95 µM | [8] 1.16 µM | [9] 2.07 µM | [11] 1.37 µM | [12] 1.73 µM | [13] 1.99 µM | [14] 3.08 µM | [15] 1.28 µM | [16] 1.8 µM

COC1[C@@H](OC(C)=O)[C@@H](NC(=O)C(Cl)(Cl)Cl)C(I)[C@@H](N2C(=O)c3ccccc3C2=O)[C@H]1OC (some centres not stated)
inactive: [1] 50.2 µM | [2] > 100 µM | [3] > 100 µM | [6] > 100 µM | [7] > 100 µM | [8] 47.5 µM | [9] > 100 µM | [11] > 100 µM | [12] > 100 µM | [13] > 100 µM | [14] > 100 µM | [15] > 100 µM | [16] > 100 µM
